Source: patent US8524909B2, “Tetrahydro-pyran derivatives” (Hoffmann-La Roche Inc., priority 2010, dated 2013)

Target: mGlyT-1b (Mus musculus (Mouse), UniProt P28571)
Experiment: Glycine Uptake Inhibition Assay (mGlyT-1b)
Format: cell-based
Conditions: [3H]-glycine uptake in Flp-in-CHO cells stably transfected with mGlyT1b cDNA; 20 min preincubation at 22° C.
Experimental: DMEM complete medium: Nutrient mixture F-12 (Gibco Life-technologies), fetal bovine serum (FBS) 5%, (Gibco life technologies), Penicillin/Streptomycin 1% (Gibco life technologies), Hygromycin 0.6 mg/ml (Gibco life technologies), Glutamine 1 mM Gibco life technologies)
Uptake buffer (UB): 150 mM NaCl, 10 mM Hepes-Tris, pH 7.4, 1 mM CaCl2, 2.5 mM KCl, 2.5 mM MgSO4, 10 mM (+) D-glucose.
Flp-in™-CHO (Invitrogen Cat no R758-07) cells stably transfected with mGlyT1b cDNA.
Glycine Uptake Inhibition Assay (mGlyT-1b)
On day 1 mammalian cells, (Flp-in™-CHO), transfected with mGlyT-1b cDNA, were plated at the density of 40,000 cells/well in complete F-12 medium, without hygromycin in 96-well culture plates. On day 2, the medium was aspirated and the cells were washed twice with uptake buffer (UB). The cells were then incubated for 20 min at 22° C. with either (i) no potential competitor, (ii) 10 mM non-radioactive glycine, (iii) a concentration of a potential inhibitor. A range of concentrations of the potential inhibitor was used to generate data for calculating the concentration of inhibitor resulting in 50% of the effect (e.g. IC50, the concentration of the competitor inhibiting glycine uptake of 50%). A solution was then immediately added containing [^3H]-glycine 60 nM (11-16 Ci/mmol) and 25 μM non-radioactive glycine. The plates were incubated with gentle shaking and the reaction was stopped by aspiration of the mixture and washing (three times) with ice-cold UB. The cells were lysed with scintillation liquid, shaken 3 hours and the radioactivity in the cells was counted using a scintillation counter.

Sequence of mGlyT-1b (P28571 other isoform, or with tags, fused parts or gaps isoform P28571-2): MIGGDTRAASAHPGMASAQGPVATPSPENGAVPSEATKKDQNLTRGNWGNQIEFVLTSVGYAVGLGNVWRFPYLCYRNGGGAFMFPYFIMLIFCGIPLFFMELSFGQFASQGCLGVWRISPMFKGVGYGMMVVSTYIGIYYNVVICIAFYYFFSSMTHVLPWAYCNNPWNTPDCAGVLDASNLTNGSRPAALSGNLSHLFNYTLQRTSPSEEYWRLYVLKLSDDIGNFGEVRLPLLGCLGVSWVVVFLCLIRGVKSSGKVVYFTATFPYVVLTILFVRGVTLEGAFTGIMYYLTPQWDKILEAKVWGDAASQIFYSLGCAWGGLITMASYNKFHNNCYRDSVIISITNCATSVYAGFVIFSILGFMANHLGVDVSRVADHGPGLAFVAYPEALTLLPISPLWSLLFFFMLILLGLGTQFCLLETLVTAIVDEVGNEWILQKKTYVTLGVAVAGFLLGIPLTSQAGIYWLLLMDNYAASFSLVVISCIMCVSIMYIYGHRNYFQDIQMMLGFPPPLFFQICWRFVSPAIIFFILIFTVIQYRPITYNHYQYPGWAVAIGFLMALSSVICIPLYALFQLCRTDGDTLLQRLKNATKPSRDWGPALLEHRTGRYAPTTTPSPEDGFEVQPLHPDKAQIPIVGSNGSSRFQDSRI

In the case of `O=C(N[C@@H]1COCC[C@H]1NC1CCCC1)c1ccc(C(F)(F)F)cc1C1CC1` [Example 44, (−)-N-(trans-4-Cyclopentylamino-tetrahydro-pyran-3-yl)-2-cyclopropyl-4-trifluoromethyl-benzamide], the IC50 is reported as 299 nM.
Molecule `COc1cc(C(F)(F)F)cc(SC)c1C(=O)N[C@H]1COCC[C@@H]1NC1CCCC1` [Example 45, (+)-N-(4-Cyclopentylamino-tetrahydro-pyran-3-yl)-2-methoxy-6-methylsulfanyl-4-trifluoromethyl-benzamide] has an IC50 of 111 nM.
`COc1cc(C(F)(F)F)cc(SC)c1C(=O)N[C@@H]1COCC[C@H]1NC1CCCC1` [Example 46, (−)-N-(4-Cyclopentylamino-tetrahydro-pyran-3-yl)-2-methoxy-6-methylsulfanyl-4-trifluoromethyl-benzamide] was tested, and the IC50 was 158 nM.
In the case of `O=C(N[C@H]1COCC[C@@H]1N1CCCC1)c1c(C2CC2)cc(C(F)(F)F)cc1C(F)(F)F` [Example 47, (+)-2-Cyclopropyl-N-(4-pyrrolidin-1-yl-tetrahydro-pyran-3-yl)-4,6-bis-trifluoromethyl-benzamide], the IC50 is reported as 16 nM.
For `O=C(N[C@@H]1COCC[C@H]1N1CCCC1)c1c(C2CC2)cc(C(F)(F)F)cc1C(F)(F)F` [Example 48, (−)-2-Cyclopropyl-N-(4-pyrrolidin-1-yl-tetrahydro-pyran-3-yl)-4,6-bis-trifluoromethyl-benzamide], the IC50 was 20 nM.
`O=C(N[C@@H]1COCC[C@H]1NC1CCCCC1)c1ccc(C(F)(F)F)cc1C1CC1` [Example 49] was tested, and the IC50 was 340 nM.
For `O=C(N[C@H]1COCC[C@@H]1NC1CCCCC1)c1ccc(C(F)(F)F)cc1C1CC1` [Example 50], the IC50 was 57 nM.
Molecule `Cc1cc(C(F)(F)F)cc(C)c1C(=O)N[C@H]1COCC[C@@H]1N1CCCC1` [Example 51] has an IC50 of 25.3 nM.
For `Cc1cc(C(F)(F)F)cc(C)c1C(=O)N[C@@H]1COCC[C@H]1N1CCCC1` [Example 52], the IC50 was 34.1 nM.
`COc1cc(C(F)(F)F)cc(C)c1C(=O)N[C@H]1COCC[C@@H]1N1CCCC1` [Example 53, (+)-2-Methoxy-6-methyl-N-(4-pyrrolidin-1-yl-tetrahydro-pyran-3-yl)-4-trifluoromethyl-benzamide] gave an IC50 of 78.2 nM.
`COc1cc(C(F)(F)F)cc(C)c1C(=O)N[C@@H]1COCC[C@H]1N1CCCC1` [Example 54] was tested, and the IC50 was 33.8 nM.
For `CCc1cc(C(F)(F)F)cc(OC)c1C(=O)N[C@H]1COCC[C@@H]1N1CCCC1` [Example 55], the IC50 was 48.3 nM.
Molecule `CCc1cc(C(F)(F)F)cc(OC)c1C(=O)N[C@@H]1COCC[C@H]1N1CCCC1` [Example 56, (−)-2-Ethyl-6-methoxy-N-(4-pyrrolidin-1-yl-tetrahydro-pyran-3-yl)-4-trifluoro-methyl-benzamide] has an IC50 of 15.5 nM.
Molecule `COc1cc(C(F)(F)F)cc(C2CC2)c1C(=O)N[C@H]1COCC[C@@H]1N1CCCC1` [Example 57] has an IC50 of 62.5 nM.
Work on `COc1cc(C(F)(F)F)cc(C2CC2)c1C(=O)N[C@@H]1COCC[C@H]1N1CCCC1` [Example 58] yielded an IC50 of 7.6 nM.
`COc1cc(C(F)(F)F)cc(SC)c1C(=O)N[C@H]1CCOC[C@H]1N1CCCC1` [Example 64, (−)-2-Methoxy-6-methylsulfanyl-N-(3-pyrrolidin-1-yl-tetrahydro-pyran-4-yl)-4-trifluoro-methyl-benzamide] was tested, and the IC50 was 189 nM.
`COc1cc(C(F)(F)F)cc(SC)c1C(=O)N[C@@H]1CCOC[C@@H]1N1CCCC1` [Example 65, (+)-2-Methoxy-6-methylsulfanyl-N-(3-pyrrolidin-1-yl-tetrahydro-pyran-4-yl)-4-trifluoro-methyl-benzamide] showed an IC50 of 119 nM.
